Assay results as given in patent publication US9527851B2, “Pyrrole six-membered heteroaryl ring derivative, preparation method thereof, and medicinal uses thereof” (Jiangsu Hengrui Medicine Co., Ltd., priority 2011, dated 2016).

Key:
JAK1 kinase = JAK1 kinase (Homo sapiens (Human), UniProt P23458); assay: Assay for inhibiting JAK1 kinase (in vitro kinase assay, HRP anti-phosphotyrosine antibody/TMB absorbance); format: biochemical; details: 20 μM ATP, 50 minutes at room temperature; read-out: IC50 (JAK1/Bio)
Description: In vitro activity of compounds of the present invention for inhibiting JAK1 kinase was determined by the following method.
IC50 values of test compounds was calculated from the data of the test compounds in inhibiting the activity of JAK1 kinase at different concentrations.

[1] = Pharmacokinetics assay in rats, intragastric administration, plasma by LC/MS/MS; format: in vivo, Sprague-Dawley (SD) rats; details: both sexes, Sprague-Dawley, rat, plasma, po, SD rats, 10 mg/kg
Description: Rats were used as test animals. […] The pharmacokinetic behavior of the compounds of the present invention was studied and evaluated in rats.
56 Healthy adult Sprague-Dawley (SD) rats, half male and half female, purchased from SINO-BRITSH SIPPR/BK LAB.
The appropriate amount of test compounds were weighed and mixed with 1.0 mL of dimethyl sulfoxide to prepare a 1.0 mg/mL suspension.
After an overnight fast, SD rats were administered intragastrically at a dose of 10.0 mg/kg and an administration volume of 10 mL/kg.
The plasma samples were stored at −20° C. The rats were fed 2 hours after administration.
Content determination of the test compounds in rat plasma after intragastrically administering at different concentrations: 50 μL of rat plasmas taken at various time points after administration were mixed with 50 μL of internal standard solution and 100 μL of methanol and mixed for 3 minutes by a vortexer. The mixture was centrifuged for 10 minutes at 13,500 rpm. 10 μL of the supernatant was taken from the plasma sample and analyzed by LC-MS/MS.
Pharmacokinetic Parameters of the compounds of the present invention were shown as follows: […]

JAK2 kinase = JAK2 kinase (Homo sapiens (Human), UniProt O60674); assay: Assay for inhibiting JAK2 kinase (in vitro kinase assay, HRP anti-phosphotyrosine antibody/TMB absorbance); format: biochemical; details: 20 μM ATP, 50 minutes at room temperature; read-out: IC50 (JAK2/Bio)
Description: In vitro activity of compounds of the present invention for inhibiting JAK2 kinase was determined by the following method.

JAK2 kinase, sequence (O60674 whole entry): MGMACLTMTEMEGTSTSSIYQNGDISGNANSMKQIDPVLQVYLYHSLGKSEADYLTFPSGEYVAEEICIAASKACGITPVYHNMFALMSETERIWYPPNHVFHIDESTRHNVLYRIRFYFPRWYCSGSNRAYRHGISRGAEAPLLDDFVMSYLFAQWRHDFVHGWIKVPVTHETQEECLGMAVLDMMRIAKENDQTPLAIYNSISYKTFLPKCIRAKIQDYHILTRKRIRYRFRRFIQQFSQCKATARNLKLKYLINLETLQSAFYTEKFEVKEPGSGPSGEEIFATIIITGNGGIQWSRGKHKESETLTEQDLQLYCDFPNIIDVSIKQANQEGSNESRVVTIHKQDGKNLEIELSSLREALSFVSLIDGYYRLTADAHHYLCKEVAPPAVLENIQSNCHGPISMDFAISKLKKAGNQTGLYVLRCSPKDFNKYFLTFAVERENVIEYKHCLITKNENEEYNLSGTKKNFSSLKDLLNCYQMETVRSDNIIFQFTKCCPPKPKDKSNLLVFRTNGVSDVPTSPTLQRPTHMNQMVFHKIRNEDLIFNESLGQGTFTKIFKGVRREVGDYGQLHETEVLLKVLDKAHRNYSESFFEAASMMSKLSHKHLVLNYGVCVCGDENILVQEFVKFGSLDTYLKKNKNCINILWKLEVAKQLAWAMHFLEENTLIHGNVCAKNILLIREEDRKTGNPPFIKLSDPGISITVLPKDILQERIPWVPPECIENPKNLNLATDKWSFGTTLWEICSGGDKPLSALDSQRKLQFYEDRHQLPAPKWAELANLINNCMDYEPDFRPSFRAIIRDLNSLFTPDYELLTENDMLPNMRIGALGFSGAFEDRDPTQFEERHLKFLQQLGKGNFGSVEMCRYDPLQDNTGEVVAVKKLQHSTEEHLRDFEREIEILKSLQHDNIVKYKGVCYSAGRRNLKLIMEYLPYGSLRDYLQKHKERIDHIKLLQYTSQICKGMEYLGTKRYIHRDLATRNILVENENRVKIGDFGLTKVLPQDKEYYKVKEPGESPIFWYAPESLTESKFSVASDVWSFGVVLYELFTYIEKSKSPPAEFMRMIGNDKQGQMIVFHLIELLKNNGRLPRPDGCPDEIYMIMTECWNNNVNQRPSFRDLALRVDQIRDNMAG
JAK1 kinase, sequence (P23458 whole entry): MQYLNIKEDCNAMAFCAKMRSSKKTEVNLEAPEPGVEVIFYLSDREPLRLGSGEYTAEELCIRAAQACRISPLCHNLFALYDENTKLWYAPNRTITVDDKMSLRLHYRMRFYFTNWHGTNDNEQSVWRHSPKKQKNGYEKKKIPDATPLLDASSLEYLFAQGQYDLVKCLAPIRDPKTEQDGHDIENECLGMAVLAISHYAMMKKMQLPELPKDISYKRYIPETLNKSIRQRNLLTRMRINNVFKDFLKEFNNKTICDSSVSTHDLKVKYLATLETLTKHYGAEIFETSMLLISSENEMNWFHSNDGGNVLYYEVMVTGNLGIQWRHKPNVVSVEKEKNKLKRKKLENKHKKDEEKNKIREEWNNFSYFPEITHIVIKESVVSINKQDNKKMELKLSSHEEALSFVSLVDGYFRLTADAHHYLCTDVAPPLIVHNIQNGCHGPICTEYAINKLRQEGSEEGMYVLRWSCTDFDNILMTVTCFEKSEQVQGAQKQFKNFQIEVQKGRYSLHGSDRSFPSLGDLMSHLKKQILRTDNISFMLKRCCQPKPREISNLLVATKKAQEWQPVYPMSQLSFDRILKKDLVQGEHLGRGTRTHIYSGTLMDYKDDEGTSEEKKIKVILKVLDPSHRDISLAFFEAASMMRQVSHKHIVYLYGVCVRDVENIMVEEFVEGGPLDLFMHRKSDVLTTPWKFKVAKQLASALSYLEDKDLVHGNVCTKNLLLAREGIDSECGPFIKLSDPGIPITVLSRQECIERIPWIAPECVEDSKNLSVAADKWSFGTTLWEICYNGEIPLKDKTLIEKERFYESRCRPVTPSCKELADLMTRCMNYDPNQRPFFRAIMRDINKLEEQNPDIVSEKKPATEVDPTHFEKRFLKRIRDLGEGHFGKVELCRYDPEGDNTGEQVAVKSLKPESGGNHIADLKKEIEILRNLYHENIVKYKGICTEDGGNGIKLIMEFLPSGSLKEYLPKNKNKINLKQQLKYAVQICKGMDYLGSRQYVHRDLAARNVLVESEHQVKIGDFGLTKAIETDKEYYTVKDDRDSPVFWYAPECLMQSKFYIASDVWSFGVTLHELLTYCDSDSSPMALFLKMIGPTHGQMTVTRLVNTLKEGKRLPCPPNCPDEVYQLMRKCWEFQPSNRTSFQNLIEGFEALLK

Row | Compound | IC50 (JAK1 kinase) | IC50 (JAK2 kinase) | other results
1 | C[C@H](O)C(=O)N1C[C@H]2C[C@H](N(C)c3ncnc4[nH]ccc34)C[C@H]2C1 [Example 17, (S)-2-Hydroxy-1-((3aR,5R,6aS)-5-(methyl(7H-pyrrolo[2,3-d]pyrimidin-4-yl)amino)hexahydrocyclopenta[c]pyrrol-2(1H)-yl)propan-1-one] | 0.2 nM | – | Vd/F ([1]; read-out: Apparent Distribution Volume Vz/F): 6.2 ± 1.69 L/kg; AUC ([1]; read-out: Area Under Curve AUC): 4760 ± 1680 ng·h/mL; CL/F ([1]; read-out: Clearance CL/F): 38.7 ± 13.7 mL/min/kg; half-life ([1]; read-out: Half-Life t½ (converted)): 2.03 ± 0.82 h; Cmax ([1]; read-out: Plasma Conc. Cmax): 1480 ± 177 ng/mL
2 | COC(=O)CN1C[C@H]2C[C@H](N(C)c3ncnc4[nH]ccc34)C[C@H]2C1 [Example 24, methyl 2-((3aR,5S,6aS)-5-(methyl(7H-pyrrolo[2,3-d]pyrimidin-4-yl)amino)hexahydrocyclopenta[c]pyrrol-2(1H)-yl)acetate] | 13 nM | 77 nM | –
3 | COC(=O)N1CC[C@H]2CC(N(C)c3ncnc4[nH]ccc34)C[C@H]2C1 (stereo partly drawn) [Example 36, (4aS,7aR)-Methyl 6-(methyl(7H-pyrrolo[2,3-d]pyrimidin-4-yl)amino) hexahydro-1H-cyclopenta[c]pyridine-2(3H)-carboxylate] | 25 nM | 75 nM | –
4 | CN(c1ncnc2[nH]ccc12)C1C[C@@H]2CCN(C(=O)CO)C[C@@H]2C1 (stereo partly drawn) [Example 37, 2-Hydroxy-1-((4aS,7aR)-6-(methyl(7H-pyrrolo[2,3-d]pyrimidin-4-yl)amino)hexahydro-1H-cyclopenta[c]pyridin-2(3H,4H,4aH,5H,6H,7H,7aH)-yl)ethanone] | 50 nM | 72 nM | –
5 | COc1nsc(NC(=O)N2CC[C@H]3CC(N(C)c4ncnc5[nH]ccc45)C[C@H]3C2)n1 (stereo partly drawn) [Example 38, (4aS,7aR)—N-(3-Methoxy-1,2,4-thiadiazol-5-yl)-6-(methyl(7H-pyrrolo[2,3-d]pyrimidin-4-yl)amino)hexahydro-1H-cyclopenta[c]pyridine-2(3H)-carboxamide] | – | 7 nM | –
6 | CN(c1ncnc2[nH]ccc12)C1C[C@@H]2CCN(C(=O)CC#N)C[C@@H]2C1 (stereo partly drawn) [Example 39, 3-((4aS,7aR)-6-(Methyl(7H-pyrrolo[2,3-d]pyrimidin-4-yl)amino)hexahydro-1H-cyclopenta[c]pyridin-2(3H,4H,4aH,5H,6H,7H,7aH)-yl)-3-oxopropanenitrile] | 34 nM | 113 nM | –
7 | Cc1noc(N2C[C@H]3C[C@H](N(C)c4ncnc5[nH]ccc45)C[C@H]3C2)n1 [Example 61, N-methyl-N-((3aR,5S,6aS)-2-(3-methyl-1,2,4-oxadiazol-5-yl)octahydrocyclopenta[c]pyrrol-5-yl)-7H-pyrrolo[2,3-d]pyrimidin-4-amine] | 128 nM | 25 nM | –
8 | Cc1nsc(N2C[C@H]3C[C@H](N(C)c4ncnc5[nH]ccc45)C[C@H]3C2)n1 [Example 65, N-methyl-N-((3aR,5S,6aS)-2-(3-methyl-1,2,4-thiadiazol-5-yl)octahydrocyclopenta[c]pyrrol-5-yl)-7H-pyrrolo[2,3-d]pyrimidin-4-amine] | – | 179 nM | –
9 | CN(c1ncnc2[nH]ccc12)[C@@H]1C[C@@H]2CN(CCC#N)C[C@@H]2C1 [Example 68, 3-((3aR,5R,6aS)-5-(methyl(7H-pyrrolo[2,3-d]pyrimidin-4-yl)amino)hexahydrocyclopenta[c]pyrrol-2(1H)-yl)propanenitrile] | 17 nM | 18 nM | –
10 | CN(c1ncnc2[nH]ccc12)[C@@H]1C[C@@H]2CN(C(=O)Nc3nncs3)C[C@@H]2C1 [Example 73, (3aR,5R,6aS)-5-(methyl(7H-pyrrolo[2,3-d]pyrimidin-4-yl)amino)-N-(1,3,4-thiadiazol-2-yl)hexahydrocyclopenta[c]pyrrole-2(1H)-carboxamide] | 75 nM | 47 nM | –
11 | COc1nsc(NC(=O)N2C[C@H]3C[C@@H](N(C)c4ncnc5[nH]ccc45)C[C@H]3C2)n1 [Example 74, (3aR,5R,6aS)-N-(3-methoxy-1,2,4-thiadiazol-5-yl)-5-(methyl(7H-pyrrolo[2,3-d]pyrimidin-4-yl)amino)hexahydrocyclopenta[c]pyrrole-2(1H)-carboxamide] | 4 nM | 56 nM | –
12 | CN(c1ncnc2[nH]ccc12)[C@@H]1C[C@@H]2CN(C(=O)CCC#N)C[C@@H]2C1 [Example 75, 4-((3aR,5R,6aS)-5-(methyl(7H-pyrrolo[2,3-d]pyrimidin-4-yl)amino)hexahydrocyclopenta[c]pyrrol-2(1H)-yl)-4-oxobutanenitrile] | 46 nM | 156 nM | –
13 | CN(c1ncnc2[nH]ccc12)[C@H]1C[C@@H]2CN(C(=O)Nc3nncs3)C[C@@H]2C1 [Example 86, (3aR,5S,6aS)-5-(methyl(7H-pyrrolo[2,3-d]pyrimidin-4-yl)amino)-N-(1,3,4-thiadiazol-2-yl)hexahydrocyclopenta[c]pyrrole-2(1H)-carboxamide] | 10 nM | 52 nM | –
14 | CN(c1ncnc2[nH]ccc12)[C@H]1C[C@@H]2CN(C(=O)[C@H](O)CO)C[C@@H]2C1 [Example 92, (R)-2,3-dihydroxy-1-((3aR,5S,6aS)-5-(methyl(7H-pyrrolo[2,3-d]pyrimidin-4-yl)amino)hexahydrocyclopenta[c]pyrrol-2(1H)-yl)propan-1-one] | 131 nM | 203 nM | –
15 | COc1cncc(NC(=O)N2C[C@H]3C[C@H](N(C)c4ncnc5[nH]ccc45)C[C@H]3C2)c1 [Example 109, (3aR,5S,6aS)-N-(5-methoxypyridin-3-yl)-5-(methyl(7H-pyrrolo[2,3-d]pyrimidin-4-yl)amino)hexahydrocyclopenta[c]pyrrole-2(1H)-carboxamide] | 15 nM | – | –
16 | COc1nsc(NC(=O)N2C[C@H]3C[C@H](N(C)c4ccnc5[nH]ccc45)C[C@H]3C2)n1 [Example 113, (3aR,5S,6aS)-N-(3-methoxy-1,2,4-thiadiazol-5-yl)-5-(methyl(1H-pyrrolo[2,3-b]pyridin-4-yl)amino)hexahydrocyclopenta[c]pyrrole-2(1H)-carboxamide] | 23 nM | 178 nM | –
17 | Cc1cnc(NC(=O)N2C[C@H]3C[C@H](N(C)c4ncnc5[nH]ccc45)C[C@H]3C2)s1 [Example 117, (3aR,5S,6aS)-5-(methyl(7H-pyrrolo[2,3-d]pyrimidin-4-yl)amino)-N-(5-methylthiazol-2-yl)hexahydrocyclopenta[c]pyrrole-2(1H)-carboxamide] | 95 nM | – | –
18 | Cc1cc(NC(=O)N2C[C@H]3C[C@H](N(C)c4ncnc5[nH]ccc45)C[C@H]3C2)sn1 [Example 119, (3aR,5S,6aS)-5-(methyl(7H-pyrrolo[2,3-d]pyrimidin-4-yl)amino)-N-(3-methylisothiazol-5-yl)hexahydrocyclopenta[c]pyrrole-2(1H)-carboxamide] | 48 nM | – | –
19 | Cc1ncc(NC(=O)N2C[C@H]3C[C@H](N(C)c4ncnc5[nH]ccc45)C[C@H]3C2)s1 [Example 124, (3aR,5S,6aS)-5-(methyl(7H-pyrrolo[2,3-d]pyrimidin-4-yl)amino)-N-(2-methylthiazol-5-yl)hexahydrocyclopenta[c]pyrrole-2(1H)-carboxamide] | 119 nM | – | –
20 | COC(=O)CN1C[C@@H]2[C@H](C1)[C@H]2CN(C)c1ncnc2[nH]ccc12 [Example 134, methyl 2-((1R,5S,6R)-6-((methyl(7H-pyrrolo[2,3-d]pyrimidin-4-yl)amino)methyl)-3-azabicyclo[3.1.0]hexan-3-yl)acetate] | – | 60 nM | –
21 | CN(C[C@H]1[C@@H]2CN(C(=O)C3CC3)C[C@@H]21)c1ncnc2[nH]ccc12 [Example 135, cyclopropyl((1R,5S,6S)-6-((methyl(7H-pyrrolo[2,3-d]pyrimidin-4-yl)amino)methyl)-3-azabicyclo[3.1.0]hexan-3-yl)methanone] | – | 2 nM | –
22 | COc1nnc(NC(=O)N2C[C@H]3C[C@H](N(C)c4ncnc5[nH]ccc45)C[C@H]3C2)s1 [Example 155, (3aR,5S,6aS)-N-(5-methoxy-1,3,4-thiadiazol-2-yl)-5-(methyl(7H-pyrrolo[2,3-d]pyrimidin-4-yl)amino)hexahydrocyclopenta[c]pyrrole-2(1H)-carboxamide] | 4 nM | 41 nM | –
23 | CN(c1ncnc2[nH]ccc12)[C@H]1C[C@@H]2CN(C(=O)Nc3nc(O)ns3)C[C@@H]2C1 [Example 156, (3aR,5S,6aS)-N-(3-hydroxy-1,2,4-thiadiazol-5-yl)-5-(methyl(7H-pyrrolo[2,3-d]pyrimidin-4-yl)amino)hexahydrocyclopenta[c]pyrrole-2(1H)-carboxamide] | 171 nM | – | –
